{"source": "patent US9974726B2", "about": "“Gentle cleansing compositions with makeup removal properties” (L'OREAL, priority 2016, dated 2018)", "tested_on": "skin of an arm", "assay": "Hydration Test (corneometer)", "assay_type": "in vivo", "details": "n=10", "procedure": "Each of the compositions in the table below were individually applied to the skin of an arm (n=10) and then removed with a moist cotton pad. A corneometer was used to take initial measurements, and subsequent measurements at 1, 2, and 6 hour time points."}
{"smiles": "CCCCCCCCCCCCOS(=O)(=O)[O-].[Na+]", "note": "[5% sodium lauryl sulfate, sodium lauryl sulfate]", "values": [{"measurement": "corneometer measurement, 1 hours", "setting": "1 hour after application and removal with moist cotton pad, * = statistically significant", "value": 34.2}, {"measurement": "corneometer measurement, 2 hours", "setting": "2 hours after application and removal, * = statistically significant", "value": 33.5}, {"measurement": "corneometer measurement, 6 hours", "setting": "6 hours after application and removal, * = statistically significant", "value": 32.4}, {"measurement": "corneometer measurement, 0 hours", "setting": "initial measurement", "value": 30.7}]}
